{
  "source": "ChEMBL document CHEMBL1142432",
  "about": "(J Med Chem, 2008)",
  "key": {"[1]": {"test_system": "Mycobacterium tuberculosis", "experiment": "Antimycobacterial activity against Mycobacterium tuberculosis H37Rv", "format": "functional"}, "Staphylococcus aureus": {"test_system": "Staphylococcus aureus", "experiment": "Protection against methicillin-resistant Staphylococcus aureus infection in pneumonia patient", "format": "functional"}, "[2]": {"target": "T1, Amine oxidase [flavin-containing] A (Homo sapiens, UniProt P21397)", "T1 sequence (P21397 whole entry)": "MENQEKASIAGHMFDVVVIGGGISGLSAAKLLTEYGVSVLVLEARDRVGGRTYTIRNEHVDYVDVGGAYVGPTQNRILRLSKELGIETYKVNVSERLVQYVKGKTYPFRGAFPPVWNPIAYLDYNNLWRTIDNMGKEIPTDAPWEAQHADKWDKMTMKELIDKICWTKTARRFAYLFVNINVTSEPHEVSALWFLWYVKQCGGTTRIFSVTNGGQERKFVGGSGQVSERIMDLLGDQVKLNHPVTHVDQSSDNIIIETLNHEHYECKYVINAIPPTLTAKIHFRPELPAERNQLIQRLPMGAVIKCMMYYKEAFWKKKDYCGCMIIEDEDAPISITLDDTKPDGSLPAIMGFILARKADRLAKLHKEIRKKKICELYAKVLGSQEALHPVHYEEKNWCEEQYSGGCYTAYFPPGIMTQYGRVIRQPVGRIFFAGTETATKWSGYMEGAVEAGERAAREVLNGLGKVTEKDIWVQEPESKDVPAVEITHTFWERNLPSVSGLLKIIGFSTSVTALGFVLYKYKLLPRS", "experiment": "Inhibition of monoamine oxidase A"}, "[3]": {"experiment": "Drug level in human lung epithelial lining fluid at 600 mg, po bid after 4 hrs", "format": "ADME, organism-based", "conditions": "read-out: Drug uptake"}, "Homo sapiens": {"species_on_record": "Homo sapiens", "experiment": "Nonrenal clearance in human", "format": "ADME, organism-based", "conditions": "in vivo"}, "[4]": {"experiment": "Renal clearance in human", "format": "ADME, organism-based, Kidney", "conditions": "in vivo, read-out: CL_renal"}, "[5]": {"experiment": "Total clearance in human", "format": "ADME, organism-based", "conditions": "in vivo"}, "[6]": {"experiment": "Drug level in human urine", "format": "ADME, tissue-based", "conditions": "read-out: Drug uptake"}, "Rattus norvegicus [7]": {"test_system": "Rattus norvegicus", "experiment": "Toxicity in rat at 50 mg/kg, po for 30 days", "format": "organism-based", "parameters": "dose 50 mg/kg, route oral", "conditions": "in vivo, 720 h"}, "Rattus norvegicus [8]": {"test_system": "Rattus norvegicus", "experiment": "Toxicity in rat at 20 mg/kg for 30 days", "format": "organism-based", "parameters": "dose 20 mg/kg", "conditions": "in vivo, 720 h"}, "Enterococcus": {"test_system": "Enterococcus", "experiment": "Protection against vancomycin-resistant Enterococcus infection in pneumonia patient", "format": "functional"}, "Plasma": {"test_system": "Plasma", "experiment": "Plasma concentration in human at 600 mg, po bid", "format": "ADME, organism-based", "conditions": "in vivo"}, "Canis familiaris [9]": {"test_system": "Canis familiaris", "experiment": "Toxicity in dog at 20 mg/kg for 30 days", "format": "organism-based, Canis lupus familiaris", "parameters": "dose 20 mg/kg", "conditions": "in vivo, 720 h"}, "[10]": {"experiment": "Elimination half life in human", "format": "ADME, organism-based", "conditions": "in vivo"}, "Canis familiaris [11]": {"test_system": "Canis familiaris", "experiment": "Toxicity in dog at 40 mg/kg, po for 30 days", "format": "organism-based, Canis lupus familiaris", "parameters": "dose 40 mg/kg, route oral", "conditions": "in vivo, 720 h"}, "Rattus norvegicus [12]": {"test_system": "Rattus norvegicus", "experiment": "Toxicity in rat at 25 mg/kg for 30 days", "format": "organism-based", "parameters": "dose 25 mg/kg", "conditions": "in vivo, 720 h"}, "[13]": {"experiment": "Oral bioavailability in dog at 25 mg/kg", "format": "ADME, organism-based, Canis lupus familiaris", "conditions": "in vivo"}, "Canis familiaris [14]": {"test_system": "Canis familiaris", "experiment": "Toxicity in dog at 25 mg/kg for 30 days", "format": "organism-based, Canis lupus familiaris", "parameters": "dose 25 mg/kg", "conditions": "in vivo, 720 h"}, "[15]": {"experiment": "Aqueous solubility of the compound", "format": "physicochemical"}},
  "data": [
    {"compound": "NNC(=O)c1ccncc1", "note": "[ISONIAZID]", "values": [
      {"measurement": "MIC", "setting": "[1]", "result": 0.2, "unit": "mg/L"}
    ]},
    {"compound": "CN[C@H](CC(C)C)C(=O)N[C@H]1C(=O)N[C@@H](CC(N)=O)C(=O)N[C@H]2C(=O)N[C@H]3C(=O)N[C@H](C(=O)N[C@H](C(=O)O)c4cc(O)cc(O)c4-c4cc3ccc4O)[C@H](O)c3ccc(c(Cl)c3)Oc3cc2cc(c3O[C@@H]2O[C@H](CO)[C@@H](O)[C@H](O)[C@H]2O[C@H]2C[C@](C)(N)[C@H](O)[C@H](C)O2)Oc2ccc(cc2Cl)[C@H]1O", "note": "[VANCOMYCIN]", "values": [
      {"measurement": "Activity", "setting": "Staphylococcus aureus", "result": 74, "unit": "%"}
    ]},
    {"compound": "CC(=O)NC[C@H]1CN(c2ccc(N3CCOCC3)c(F)c2)C(=O)O1", "note": "[LINEZOLID]", "values": [
      {"measurement": "Efficacy", "setting": "Staphylococcus aureus", "result": 77, "unit": "%"},
      {"measurement": "Ki", "setting": "[2]", "result": 55, "unit": "µM"},
      {"measurement": "concentration at 4 h", "setting": "[3]", "result": 64.3, "unit": "µg/mL"},
      {"measurement": "CL", "setting": "Homo sapiens", "result": 70, "unit": "mL/min"},
      {"measurement": "CL renal", "setting": "[4]", "result": 30, "unit": "mL/min"},
      {"measurement": "clearance", "setting": "[5]", "result": 100, "unit": "mL/min"},
      {"measurement": "dose excreted", "setting": "[6]", "result": 20, "unit": "%"},
      {"measurement": "Activity", "setting": "Rattus norvegicus [7]", "result": "Non-toxic"},
      {"measurement": "Activity", "setting": "Rattus norvegicus [8]", "result": "Non-toxic"},
      {"measurement": "Efficacy", "setting": "Enterococcus", "result": 88, "unit": "%"},
      {"measurement": "Cp", "setting": "Plasma", "result": 7.3, "unit": "µg/mL"},
      {"measurement": "Activity", "setting": "Canis familiaris [9]", "result": "Non-toxic"},
      {"measurement": "half-life", "setting": "[10]", "result": 5, "unit": "h"},
      {"measurement": "Activity", "setting": "Canis familiaris [11]", "result": "Non-toxic"}
    ]},
    {"compound": "CC(=O)NC[C@H]1CN(c2ccc(N3CCN(C(=O)CO)CC3)c(F)c2)C(=O)O1", "note": "[EPEREZOLID]", "values": [
      {"measurement": "Activity", "setting": "Rattus norvegicus [12]", "result": "Non-toxic"},
      {"measurement": "bioavailability", "setting": "[13]", "result": 100, "unit": "%"},
      {"measurement": "Activity", "setting": "Canis familiaris [14]", "result": "Non-toxic"}
    ]},
    {"compound": "CC(=O)NC[C@H]1CN(c2ccc(N3CCSCC3)c(F)c2)C(=O)O1", "note": "[SUTEZOLID]", "values": [
      {"measurement": "solubility", "setting": "[15]", "result": 0.2, "unit": "mg/mL"},
      {"measurement": "MIC", "setting": "[1]", "result": "≤ 0.125", "unit": "mg/L"}
    ]}
  ]
}
